Results on five molecules are retold here after patent US20240190886A1, “BRM Targeting Compounds and Associated Methods of Use” (Prelude Therapeutics Incorporated, priority 2022, published 2024).

Some results are limits rather than exact numbers.

For assay [1], the target named is T1, SMARCA4 (Homo sapiens, UniProt P51532).
T1 construct: SMARCA2-HiBiT knock-in Hela monoclonal cell (CS302366) and SMARCA4-HiBiT knock-in Hela monoclonal cell (CS3023226) were purchased from Promega; host or cells: HeLa SMARCA4-HiBiT knock-in monoclonal cells (heterozygous knock-in)
T1 sequence (P51532 whole entry): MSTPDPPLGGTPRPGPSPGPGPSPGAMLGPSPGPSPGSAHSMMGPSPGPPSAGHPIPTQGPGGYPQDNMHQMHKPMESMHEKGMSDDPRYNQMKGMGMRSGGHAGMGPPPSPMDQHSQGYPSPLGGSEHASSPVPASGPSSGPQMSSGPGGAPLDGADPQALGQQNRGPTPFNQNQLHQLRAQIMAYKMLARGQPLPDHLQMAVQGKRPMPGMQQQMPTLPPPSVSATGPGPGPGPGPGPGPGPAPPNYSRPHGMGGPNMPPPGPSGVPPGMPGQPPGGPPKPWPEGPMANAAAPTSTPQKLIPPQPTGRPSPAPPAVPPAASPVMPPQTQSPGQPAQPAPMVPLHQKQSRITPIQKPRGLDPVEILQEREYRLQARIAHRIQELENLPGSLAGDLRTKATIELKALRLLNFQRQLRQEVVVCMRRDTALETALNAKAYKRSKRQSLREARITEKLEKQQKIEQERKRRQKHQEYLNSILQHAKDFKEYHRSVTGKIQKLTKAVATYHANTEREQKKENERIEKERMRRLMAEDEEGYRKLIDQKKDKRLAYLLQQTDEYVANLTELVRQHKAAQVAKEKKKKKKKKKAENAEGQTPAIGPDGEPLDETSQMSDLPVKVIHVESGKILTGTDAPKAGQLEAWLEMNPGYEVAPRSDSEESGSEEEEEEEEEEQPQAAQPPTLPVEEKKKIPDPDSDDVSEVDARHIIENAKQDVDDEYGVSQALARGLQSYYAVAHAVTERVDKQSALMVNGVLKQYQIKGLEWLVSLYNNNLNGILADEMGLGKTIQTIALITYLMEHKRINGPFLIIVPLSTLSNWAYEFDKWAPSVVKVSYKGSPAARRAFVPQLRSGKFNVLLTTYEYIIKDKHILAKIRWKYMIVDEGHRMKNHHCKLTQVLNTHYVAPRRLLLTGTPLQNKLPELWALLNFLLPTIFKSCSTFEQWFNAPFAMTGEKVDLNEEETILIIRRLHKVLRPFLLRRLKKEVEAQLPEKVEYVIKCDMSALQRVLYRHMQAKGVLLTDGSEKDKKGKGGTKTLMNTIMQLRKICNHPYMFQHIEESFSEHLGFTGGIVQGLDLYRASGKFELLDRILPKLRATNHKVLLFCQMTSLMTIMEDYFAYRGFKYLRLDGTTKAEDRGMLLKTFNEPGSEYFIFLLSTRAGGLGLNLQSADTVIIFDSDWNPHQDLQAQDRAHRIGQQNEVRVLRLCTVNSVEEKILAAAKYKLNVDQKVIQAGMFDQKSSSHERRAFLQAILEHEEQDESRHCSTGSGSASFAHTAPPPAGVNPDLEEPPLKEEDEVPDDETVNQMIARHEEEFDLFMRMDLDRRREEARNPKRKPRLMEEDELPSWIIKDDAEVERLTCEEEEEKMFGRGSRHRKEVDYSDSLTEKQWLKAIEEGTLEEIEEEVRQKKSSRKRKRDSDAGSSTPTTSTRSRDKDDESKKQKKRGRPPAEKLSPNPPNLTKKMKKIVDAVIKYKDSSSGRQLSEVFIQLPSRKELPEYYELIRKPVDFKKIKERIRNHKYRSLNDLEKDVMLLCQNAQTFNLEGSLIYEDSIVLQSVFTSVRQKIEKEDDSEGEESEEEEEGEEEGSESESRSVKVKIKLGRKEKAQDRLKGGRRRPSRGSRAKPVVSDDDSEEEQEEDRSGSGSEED
Nature of the assay: SMARCA4 HiBiT degradation assay in HeLa cells. Particulars: 18 hours incubation, Nano-Glo HiBiT Lytic detection. The assay is classed as cell-based. Here is the method:
(§1) Example A. SMARCA2 HiBiT and SMARCA4 HiBiT Degradation Assay
(§2) HiBiT peptide knock-in of SMARCA2 in LgBiT expressing HEK293T cells was performed by CRISPR-mediated tagging system as described Promega. The homozygous HiBiT knock-in on c-terminus SMARCA2 was confirmed by sanger sequence. SMARCA2-HiBiT knock-in Hela monoclonal cell (CS302366) and SMARCA4-HiBiT knock-in Hela monoclonal cell (CS3023226) were purchased from Promega. The heterozygous HiBiT-knock-in was confirmed by sanger sequence in both SMARCA2-HiBiT and SMARCA4-HiBiT monoclonal cells.
(§3) SMARCA2 HiBiT and SMARCA4 HiBiT degradation assay in HeLa cells
(§4) Dispense 10 ul aliquot of prepared Hela-SMARCA2-HiBiT or Hela-SMARCA4-HiBiT cells (1:1 ratio of cells:Trypan Blue (#1450013, Bio-Rad)) onto cell counting slide (#145-0011, Bio-Rad) and obtain cell density and cell viability using cell counter (TC20, Bio-Rad). Remove appropriate volume of resuspended cells from culture flask to accommodate 2500 cells/well @20 μL/well. Transfer Hela-HiBiT cells to 50 mL conical (#430290, Corning). Spin down at 1000 rpm for 5 min using tabletop centrifuge (SPINCHRON 15, Beckman). Discard supernatant and resuspend cell pellet in modified EMEM (#30-2003, ATCC) cell culture media containing 10% FBS (F2422-500ML, Sigma), and 1X Penicillin/Streptomycin (200 g/L) (30-002-CI, Corning) to a cell density of 125,000 cells/mL. Dispense 20 μLof resuspended Hela-HiBit cells per well in 384-well TC treated plate (#12-565-343, Thermo Scientific) using standard cassette (#50950372, Thermo Scientific) on Multidrop Combi (#5840310, Thermo Scientific) inside laminar flow cabinet.
(§5) Compounds were dissolved in DMSO to make 10 mM stock and 3-fold series dilutions were further conducted keeping the highest concentration 10 RM. Dispense test compounds onto plates using digital liquid dispenser (D300E, Tecan). Incubate plates in humidified tissue culture incubator @37° C. for 18 hours. Add 20 μL of prepared Nano-Glo® HiBiT Lytic detection buffer (N3050, Promega) to each well of 384-well plate using small tube cassette (#24073295, Thermo Scientific) on Multidrop Combi, incubate @ RT for 30-60 min. Read plates on microplate reader (Envision 2105, PerkinElmer) using 384 well Ultra-Sensitive luminescence mode. Raw data files and compound information reports are swept into centralized data lake and deconvoluted using automated scripts designed by TetraScience, Inc. Data analysis, curve-fitting and reporting done in Dotmatics Informatics Suite using Screening Ultra module.
(§6) In Table 1, A=DC50<0.1 RM; B=0.1 μM≤DC50<1 μM and C=DC50>1 μM. In Table 4, A=Dmax>75% and B=50%<Dmax<75% and C=Dmax<50%.
A general note: The HiBiT peptide binds its large partner to form an active luciferase.

Assay [2] deals with T2, SMARCA2 (Homo sapiens, UniProt P51531).
T2 construct: SMARCA2-HiBiT knock-in Hela monoclonal cell (CS302366) and SMARCA4-HiBiT knock-in Hela monoclonal cell (CS3023226) were purchased from Promega; host or cells: HeLa SMARCA2-HiBiT knock-in monoclonal cells (heterozygous knock-in)
T2 sequence (P51531 whole entry): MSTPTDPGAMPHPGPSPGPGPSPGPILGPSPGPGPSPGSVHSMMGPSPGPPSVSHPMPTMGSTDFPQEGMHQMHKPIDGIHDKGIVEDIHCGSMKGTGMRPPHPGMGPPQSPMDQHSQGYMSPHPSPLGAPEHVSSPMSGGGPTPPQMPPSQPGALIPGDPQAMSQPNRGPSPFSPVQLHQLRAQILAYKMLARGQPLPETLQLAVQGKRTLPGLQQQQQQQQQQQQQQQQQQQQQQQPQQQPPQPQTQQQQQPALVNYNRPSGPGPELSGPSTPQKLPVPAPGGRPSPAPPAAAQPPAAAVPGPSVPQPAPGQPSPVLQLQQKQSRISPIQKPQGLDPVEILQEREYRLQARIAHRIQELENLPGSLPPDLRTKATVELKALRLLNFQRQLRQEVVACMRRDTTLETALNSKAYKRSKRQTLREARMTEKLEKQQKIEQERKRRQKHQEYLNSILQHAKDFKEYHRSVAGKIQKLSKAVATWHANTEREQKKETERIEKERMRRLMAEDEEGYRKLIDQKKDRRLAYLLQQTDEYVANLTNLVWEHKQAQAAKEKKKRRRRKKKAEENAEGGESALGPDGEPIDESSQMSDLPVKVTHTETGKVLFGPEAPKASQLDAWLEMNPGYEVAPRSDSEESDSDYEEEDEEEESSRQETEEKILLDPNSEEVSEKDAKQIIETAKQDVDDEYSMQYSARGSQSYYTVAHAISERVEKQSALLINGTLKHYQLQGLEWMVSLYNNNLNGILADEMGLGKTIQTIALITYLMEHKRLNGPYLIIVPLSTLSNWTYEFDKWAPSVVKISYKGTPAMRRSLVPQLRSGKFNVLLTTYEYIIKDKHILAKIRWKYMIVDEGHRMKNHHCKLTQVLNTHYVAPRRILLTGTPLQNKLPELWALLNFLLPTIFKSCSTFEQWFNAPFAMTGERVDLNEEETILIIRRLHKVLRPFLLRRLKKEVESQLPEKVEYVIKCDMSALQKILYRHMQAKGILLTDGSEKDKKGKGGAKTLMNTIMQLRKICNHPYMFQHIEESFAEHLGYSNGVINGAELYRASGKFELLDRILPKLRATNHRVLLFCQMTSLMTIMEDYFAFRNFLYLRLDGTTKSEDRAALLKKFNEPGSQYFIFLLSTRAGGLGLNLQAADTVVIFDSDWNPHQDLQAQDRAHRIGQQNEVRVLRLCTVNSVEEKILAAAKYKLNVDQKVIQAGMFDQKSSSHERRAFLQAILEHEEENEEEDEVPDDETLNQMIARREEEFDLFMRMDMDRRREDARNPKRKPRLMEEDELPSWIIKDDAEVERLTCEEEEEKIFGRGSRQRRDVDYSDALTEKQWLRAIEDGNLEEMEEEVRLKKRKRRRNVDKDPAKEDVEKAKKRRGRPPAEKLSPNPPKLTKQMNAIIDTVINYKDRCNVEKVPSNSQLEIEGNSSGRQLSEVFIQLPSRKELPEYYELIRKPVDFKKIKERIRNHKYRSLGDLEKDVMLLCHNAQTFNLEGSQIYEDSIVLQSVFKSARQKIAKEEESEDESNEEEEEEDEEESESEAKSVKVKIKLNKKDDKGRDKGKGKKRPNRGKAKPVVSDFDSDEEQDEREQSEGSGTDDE
Nature of the assay: SMARCA2 HiBiT degradation assay in HeLa cells. The assay is classed as cell-based. As to conditions: 18 hours incubation, Nano-Glo HiBiT Lytic detection. Here is the method:
as §1, §2, §3, §4, §5, §6

Assay [3] has as its system SMARCA4 mutated cancer cells. Particulars: SMARCA 2/4 bromodomain inhibitors; literature statement; cited from earlier work.

For orientation: DC50 means the concentration giving 50% degradation. A high value points to a less potent degrader. Usually Dmax stands for the largest share of the target that was removed. A high value points to deep degradation.

In assay [1], `CC[C@]12CNc3nnc(-c4ccccc4O)cc3N1C[C@H](Oc1ccc(CN3CCN(c4ccc(C(=O)NC5CCC(=O)NC5=O)c(F)c4)CC3)cn1)C2` (stereo partly drawn) [Example 13, N-(2,6-dioxopiperidin-3-yl)-4-(4-((6-(((6aS,8R)-6a-ethyl-2-(2-hydroxyphenyl)-5,6,6a,7,8,9-hexahydropyrrolo[1′,2′:4,5]pyrazino[2,3-c]pyridazin-8-yl)oxy)pyridin-3-yl)methyl)piperazin-1-yl)-2-fluorobenzamide] came in with a 50% degradation concentration (DC50) greater than 1000 nM and a maximal degradation (Dmax) of less than 50%. In addition, in assay [2], the 50% degradation concentration (DC50) was 100 to 1000 nM and the Dmax was less than 50%.

With `CC[C@]12CNc3nnc(-c4ccccc4O)cc3N1C[C@H](Oc1ccc(CN3CCN(c4ccc(C5CCC(=O)NC5=O)cc4)CC3)cn1)C2` (stereo partly drawn) [Example 14, 3-(4-(4-((6-(((6aS,8R)-6a-ethyl-2-(2-hydroxyphenyl)-5,6,6a,7,8,9-hexahydro-pyrrolo[1′,2′:4,5]pyrazino[2,3-c]pyridazin-8-yl)oxy)pyridin-3-yl)methyl)piperazin-1-yl)phenyl)piperidine-2,6-dione], in assay [1], the DC50 is less than 100 nM and the Dmax is greater than 75%. Also, in assay [2], the half-maximal degradation concentration (DC50) is less than 100 nM and the Dmax was greater than 75%.

As to `O=C1CCC(c2ccc(C3CCN(Cc4ccc(O[C@H]5CN6c7cc(-c8ccccc8O)nnc7NC[C@@]6(C(F)F)C5)nc4)CC3)cc2)C(=O)N1` (stereo partly drawn) [Example 15, 3-(4-(1-((6-(((6aR,8R)-6a-(difluoromethyl)-2-(2-hydroxyphenyl)-5,6,6a,7,8,9-hexahydropyrrolo[1′,2′:4,5]pyrazino[2,3-c]pyridazin-8-yl)oxy)pyridin-3-yl)methyl)piperidin-4-yl)phenyl)piperidine-2,6-dione], the DC50 in assay [1] and in assay [2] was less than 100 nM throughout. The maximal degradation (Dmax) is greater than 75% in assay [1] and 50 to 75% in assay [2].

Consider `CC[C@@]12CNc3nnc(-c4ccccc4O)cc3N1C[C@H](Oc1ccc(CN3CCC(c4ccc(C5CCC(=O)NC5=O)cc4)CC3)cn1)C2` (stereo partly drawn) [Example 16, 3-(4-(1-((6-(((6aR,8R)-6a-ethyl-2-(2-hydroxyphenyl)-5,6,6a,7,8,9-hexahydro-pyrrolo[1′,2′:4,5]pyrazino[2,3-c]pyridazin-8-yl)oxy)pyridin-3-yl)methyl)piperidin-4-yl)phenyl)piperidine-2,6-dione], for which, in assay [1], the half-maximal degradation concentration (DC50) is less than 100 nM and the Dmax was greater than 75%. Also, in assay [2], the DC50 was less than 100 nM and the Dmax was greater than 75%.

With `O=C(/C=C/N1C[C@H]2C[C@@H]1CN2c1ccccn1)c1ccccc1O` [PFI-3], the “effects on cell proliferation inhibition” value in assay [3] is on record as “none to minor effects”.
